Read-outs that look alike come from different tables or passages of the source. Where a SMILES comes first, the peptide text is derived from it. [ ]: non-standard residue; d: D form. The star is where a group is joined. Ms = CS(=O)(=O)*
Key:
[1] = target: thrombin (Bos taurus, UniProt P00735); assay: Amidolytic activity of thrombin, substrate S-2238; format: biochemical; settings: Ki calculated from IC50 by Cheng-Prusoff, n.i. = no effect at maximum concentration 20 mM, read-out: Ki ± SD Thrombin
Description: (§1) Determination of amidolytic activity was performed as previously described (Okada et al. [1988]). The detailed description of the method is given below. The buffer and the enzyme solution included: • tris buffer—0.6 ml (pH 8.8), […]
(§2) synthetic substrate: S-2444 (0.1 ml, 3 mM); • (b) tris buffer—0.5 ml (pH 8.4), enzyme: thrombin (1 U/ml), synthetic substrate: S-2238 (0.2 ml, 0.75 mM); • (c) tris buffer—0.5 ml (pH 7.4), Buffer and 0.1 ml of enzyme solution was added to 0.2 ml of examined compound dissolved in 0.15 M NaCl (1–17) (as control 0.15 M NaCl). The mixture was incubated for 3 min at 37 °C, then the synthetic substrate was added. After 20 min of incubation, the reaction was stopped by adding 0.1 ml of 50 % acetic acid, and the absorbance of the released p-nitroaniline was measured at 405 nm (Spekol 1300, AnalyticJena). Every value represents the average of the triplicate determination. IC50 value was considered as the concentration of the inhibitor, which decreased the absorbance at 405 nm by 50 %, compared with the absorbance measured under the same conditions without the inhibitor. Ki was calculated from IC50 based on Cheng–Prusoff equation (Cheng and Prusoff [1973]).

[2] = target: T1, plasmin (Homo sapiens, UniProt P00747); assay: SPRI, immobilised inhibitor interacting with plasmin; format: binding; settings: plasmin 1 ng/ml
T1 construct: converts the pro-enzyme plasminogen into its active form plasmin; purchased Chromogenix (Milano, Italy)
T1 sequence (P00747 581-810 limits assumed): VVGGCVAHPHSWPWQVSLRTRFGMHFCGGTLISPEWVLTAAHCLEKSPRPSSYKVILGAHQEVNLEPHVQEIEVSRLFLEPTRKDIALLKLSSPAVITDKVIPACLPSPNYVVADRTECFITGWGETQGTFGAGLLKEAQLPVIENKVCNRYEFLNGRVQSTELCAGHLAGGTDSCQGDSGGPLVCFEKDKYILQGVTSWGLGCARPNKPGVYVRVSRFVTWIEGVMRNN
T1 sequence (P00747 97-580 partner limits assumed): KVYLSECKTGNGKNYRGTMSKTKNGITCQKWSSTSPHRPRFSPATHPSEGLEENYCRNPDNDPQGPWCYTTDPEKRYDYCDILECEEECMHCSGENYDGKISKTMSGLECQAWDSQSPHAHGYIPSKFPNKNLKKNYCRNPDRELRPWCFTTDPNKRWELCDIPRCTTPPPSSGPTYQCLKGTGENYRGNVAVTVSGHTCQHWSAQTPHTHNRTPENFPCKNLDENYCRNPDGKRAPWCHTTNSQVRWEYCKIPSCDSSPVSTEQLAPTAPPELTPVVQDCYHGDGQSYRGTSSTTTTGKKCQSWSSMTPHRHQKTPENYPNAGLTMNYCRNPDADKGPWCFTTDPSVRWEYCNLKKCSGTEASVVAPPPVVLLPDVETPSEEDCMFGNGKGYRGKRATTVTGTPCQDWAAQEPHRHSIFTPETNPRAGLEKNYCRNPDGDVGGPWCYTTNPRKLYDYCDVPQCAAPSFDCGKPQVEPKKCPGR
Description: Gold chips were manufactured as described in previous papers (Gorodkiewicz [2009]; Gorodkiewicz and Regulska [2010]; Gorodkiewicz et al. [2011]). The gold surface of the chip was covered with photopolymer and hydrophobic paint. 9 × 12 free gold surfaces were obtained. Using this chip, nine different solutions can be simultaneously measured without mixing the tested solutions. Twelve single SPRI measurements can be performed from one solution.
Chips were rinsed with ethanol and water and dried under a stream of nitrogen. They were then immersed in 20 mM cysteamine ethanolic solutions for at least 2 h. The chips were then rinsed with ethanol and water and dried under a stream of nitrogen.
Among the synthesised compounds, four were selected for the examination of the interaction between the enzyme and the inhibitor. They were acids of peptides 10, 12, 13 and 14. Acids can be bound to a gold surface via cysteamine. […]
SPRI measurements with an application of an enzyme array were performed as described in previous papers (Gorodkiewicz [2009]; Gorodkiewicz and Regulska [2010]; Gorodkiewicz et al. [2011]). Briefly, the measurements were performed at a fixed angle of incident light and the reflectivity was simultaneously measured across an entire chip surface. […] The signal was measured twice on the basis of registered images, after immobilisation of enzymes and then after interaction inhibitors. […]

[3] = target: T1, plasmin; assay: Amidolytic activity of plasmin, substrate S-2251; format: biochemical; settings: Ki calculated from IC50 by Cheng-Prusoff; triplicate; read-out: Ki ± SD Plasmin S-2251
Description: as §1
as §2, with “synthetic” for “synthetic substrate: S-2444 (0.1 ml, 3 mM); • (b) tris buffer—0.5 ml (pH 8.4), enzyme: thrombin (1 U/ml), synthetic”, “7.4), enzyme: plasmin (0.4 U/ml), synthetic substrate: S-2251 (0.2 ml, 3 mM); • (d) […] buffer—0.5 ml (pH 7.5),” for “7.4),”

[4] = target: urokinase (Homo sapiens, UniProt P00749); assay: Amidolytic activity of urokinase, substrate S-2444; format: biochemical; settings: Ki calculated from IC50 by Cheng-Prusoff; triplicate; n.i. = no effect at maximum concentration 20 mM; read-out: Ki ± SD Urokinase S-2444
Description: Determination of amidolytic activity was performed as previously described (Okada et al. [1988]). The detailed description of the method is given below. The buffer and the enzyme solution included: • tris buffer—0.6 ml (pH 8.8),
enzyme: urokinase (50 U/ml),
synthetic substrate: S-2444 (0.1 ml, 3 mM); • (b) tris buffer—0.5 ml (pH 8.4),
as §2, with “Buffer” for “synthetic substrate: S-2444 (0.1 ml, 3 mM); • (b) tris buffer—0.5 ml (pH 8.4), enzyme: thrombin (1 U/ml), synthetic substrate: S-2238 (0.2 ml, 0.75 mM); • (c) tris buffer—0.5 ml (pH 7.4), Buffer”

[5] = system: MDA-MB-231 cells; settings: 24 h
[6] = system: DLD cells; settings: 24 h
[7] = target: T1, plasmin; settings: ref Lynas et al. [2001]; cited from earlier work

| Molecule | Ki [1] | Inhibitor concentration above which the SPRI signal plateaus (plasmin) ([2]; Langmuir isotherm type curve) | SPRI signal for plasmin after interaction with inhibitor ([2]; inhibitor 0.002-0.2 mM) | Ki [3] | Ki [4] | IC50 [5] | IC50 [6] | Ki [7] |
| --- | --- | --- | --- | --- | --- | --- | --- | --- |
| CS(=O)(=O)N[C@H](CO)C(=O)NCC(=O)N[C@@H](CCCNC(=N)N)C(=O)O [Compound 12, CH3PhSO2-D-Ser-Gly-Arg-OH] (Ms-[dS]-Gly-Arg-OH; N-terminus and C-terminus assumed) | > 20000 µM | above 0.02 mM | positive SPRI signal | 10 ± 0.8 µM | 11.2 ± 0.89 µM | 620 µM | 230 µM | – |
| Ac-Leu-Leu-Arg-COCHO | – | – | – | – | – | – | – | 4.9 µM |

Reference: paper PMC3726930, “Synthesis and Biological Activity of N-Sulfonyltripeptides with C-Terminal Arginine as Potential Serine Proteases Inhibitors” (International Journal of Peptide Research and Therapeutics, 2012)
